Reference: ChEMBL document CHEMBL1127298, “Bis-catechol-substituted redox-reactive analogues of hexamethonium and decamethonium: stimulated affinity-dependent reactivity through iron peroxide catalysis” (J Med Chem, 1994)

Legend:
Acetylcholine receptor [1] = target: T1, Acetylcholine receptor (Torpedo californica, UniProt P02710+P02712+P02714+P02718); assay: Compound was evaluated for the binding constant for association with nicotinic acetylcholine receptor (nAChR); format: protein-complex assay, Tetronarce californica
T1 sequence (P02710 whole entry): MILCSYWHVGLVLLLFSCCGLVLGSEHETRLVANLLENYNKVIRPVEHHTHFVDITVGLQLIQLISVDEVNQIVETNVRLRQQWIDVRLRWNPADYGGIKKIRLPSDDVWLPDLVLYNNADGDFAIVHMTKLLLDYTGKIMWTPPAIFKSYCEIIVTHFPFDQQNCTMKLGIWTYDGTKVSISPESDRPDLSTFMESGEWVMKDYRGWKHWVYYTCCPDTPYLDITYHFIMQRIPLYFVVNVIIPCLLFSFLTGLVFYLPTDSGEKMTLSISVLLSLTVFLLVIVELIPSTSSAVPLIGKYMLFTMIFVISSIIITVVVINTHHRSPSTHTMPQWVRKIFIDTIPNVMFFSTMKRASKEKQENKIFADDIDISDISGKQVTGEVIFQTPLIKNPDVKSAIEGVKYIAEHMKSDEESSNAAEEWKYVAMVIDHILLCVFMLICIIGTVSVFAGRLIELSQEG
T1 sequence (P02712 whole entry): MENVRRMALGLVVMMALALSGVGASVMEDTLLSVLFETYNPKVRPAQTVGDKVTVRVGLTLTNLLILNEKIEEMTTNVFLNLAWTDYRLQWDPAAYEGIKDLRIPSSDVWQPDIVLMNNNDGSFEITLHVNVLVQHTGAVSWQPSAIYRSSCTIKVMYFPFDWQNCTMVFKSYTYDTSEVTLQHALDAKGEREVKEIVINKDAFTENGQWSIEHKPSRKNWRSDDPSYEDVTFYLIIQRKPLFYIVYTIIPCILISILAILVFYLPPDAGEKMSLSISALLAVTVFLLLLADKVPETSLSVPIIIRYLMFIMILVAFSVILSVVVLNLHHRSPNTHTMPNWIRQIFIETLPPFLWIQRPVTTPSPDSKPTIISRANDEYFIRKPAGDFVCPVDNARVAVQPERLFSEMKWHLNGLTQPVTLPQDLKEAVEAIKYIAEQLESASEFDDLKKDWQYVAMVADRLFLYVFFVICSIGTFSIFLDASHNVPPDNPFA
T1 sequence (P02718 whole entry): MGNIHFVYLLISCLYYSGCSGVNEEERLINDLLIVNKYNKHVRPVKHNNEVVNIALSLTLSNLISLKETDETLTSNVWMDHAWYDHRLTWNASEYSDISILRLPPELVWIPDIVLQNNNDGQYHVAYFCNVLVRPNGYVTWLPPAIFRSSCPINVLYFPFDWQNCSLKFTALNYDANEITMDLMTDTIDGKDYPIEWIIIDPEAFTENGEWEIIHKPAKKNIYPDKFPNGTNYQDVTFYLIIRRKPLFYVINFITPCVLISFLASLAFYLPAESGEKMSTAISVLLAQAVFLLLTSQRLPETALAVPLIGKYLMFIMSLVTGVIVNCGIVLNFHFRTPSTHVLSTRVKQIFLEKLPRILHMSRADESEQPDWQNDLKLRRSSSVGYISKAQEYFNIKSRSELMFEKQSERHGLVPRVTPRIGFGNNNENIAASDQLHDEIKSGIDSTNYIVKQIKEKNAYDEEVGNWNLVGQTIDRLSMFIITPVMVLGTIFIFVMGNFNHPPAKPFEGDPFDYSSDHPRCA
T1 sequence (P02714 whole entry): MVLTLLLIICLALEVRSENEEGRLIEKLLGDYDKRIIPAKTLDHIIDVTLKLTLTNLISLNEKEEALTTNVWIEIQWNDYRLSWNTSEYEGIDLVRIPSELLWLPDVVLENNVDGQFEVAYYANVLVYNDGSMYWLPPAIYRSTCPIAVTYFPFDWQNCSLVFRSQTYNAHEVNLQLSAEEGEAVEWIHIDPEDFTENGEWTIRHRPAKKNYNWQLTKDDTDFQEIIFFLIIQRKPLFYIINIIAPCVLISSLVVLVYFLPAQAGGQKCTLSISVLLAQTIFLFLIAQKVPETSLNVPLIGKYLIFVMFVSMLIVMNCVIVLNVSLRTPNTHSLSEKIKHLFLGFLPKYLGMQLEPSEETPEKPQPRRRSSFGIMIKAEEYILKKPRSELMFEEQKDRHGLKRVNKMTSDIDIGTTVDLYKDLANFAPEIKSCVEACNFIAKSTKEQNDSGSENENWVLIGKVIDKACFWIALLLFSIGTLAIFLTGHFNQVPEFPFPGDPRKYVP

Acetylcholine receptor [2] = target: T1, Acetylcholine receptor; assay: Binding affinity against nicotinic acetylcholine receptor (nAChR); format: protein-complex assay, Tetronarce californica

Structure (SMILES) | Kd (Acetylcholine receptor [1]) | Ki (Acetylcholine receptor [2])
C[N+](C)(CCCCCC[N+](C)(C)Cc1cccc(O)c1O)Cc1cccc(O)c1O | 18 nM | 18 nM
C[N+](C)(CCCCCCCCCC[N+](C)(C)Cc1cccc(O)c1O)Cc1cccc(O)c1O | 230 nM | –
C[N+](C)(C)Cc1cccc(O)c1O | – | 28000 nM
C[N+](C)(C)CCCCCC[N+](C)(C)C [HEXAMETHONIUM BROMIDE] | 18 nM | –
